Experimental data published in patent US4826850A, “Quinoline base compound, process for the preparation thereof and anticancer agent containing the same as pharmacologically efficacious component” (Mect Corporation, priority 1986, dated 1989).
Values after ≈ are worked out from the molar mass of the structure shown.

Key:
P-388 = test: Effect in prolonging life of P-388 mice; type: in vivo, mouse; conditions: CDF1 mice, P-388 i.p., control 100
Protocol: Test Example 2: Effect in Prolonging the Life of Mouse with Cancer, and Acute Toxicity of Drugs
Using P-388 mice with cancer, the pharmacological efficacy of the aforementioned compounds was evaluated by comparing with a control to which no such compound had been added.
Animal Used: CDF1 Mice (6 mice/group)
Number of Incubated Cells: 10^6 cells/mouse
Days at which Drugs Were Administered: Days 1 and 5, or days 1 to 9
Quantities of Drugs Administered: When a drug was administered at days 1 and 5, the maximum dosed quantity was set at LD50 or 400 mg/kg/day; and when a drug was administered at days 1 to 9, the maximum dosed quantity was set at 1/2×LD50 or 200 mg/kg/day. The experiment was conducted with groups of mice being administered the respective drugs at 3 dose levels incuding the maximum level, 1/2 of the maximum level and 1/4 of the maximum level.
When the T/C %, i.e. the ratio of the survival time (days) of a treated group (administered with a certain drug) to the survival time of a control group (administered with no drug), was 120% or more for a synthesized substance and 130% or more for a natural substance, the drug was appraised as effective (P). The survival time of the group administered with no drug is normally about 10 days (median survival time). In the following Table, an indication of "T/C 0%" means that not less than three mice were dead due to toxicity within 5 days.

KB cells = test: Effect in inhibiting growth of KB-cells (in vitro); type: cell-based; conditions: Homo sapiens, 72 h, drug added day 1, cells counted day 4, inhibition rate 50%, read-out: Concentration giving 50% growth inhibition (ED50; Inhibition Rate 50%)
Protocol: (1) Effect in Inhibiting Growth of KB-Cells
The KB-cell, one of the cancer-causing tumor cells, was incubated in an in vitro floating incubation system, and the pharmacological effects of the Compounds (4) and (5) were compared with a control to which the compounds had not been added.
KB Cells (derived from a human epidermoid carcinoma of the mouth).
Eagles minimal essential medium (MEM)-10% calf serum.
37° C. in a carbon dioxide gas incubator (5% CO2).
Day 0: The KB cells were diluted to 2×10^4 /ml medium. 3 ml of the thus diluted KB cell suspension was incubated on a 60 mm plastic dish, at 2 dishes per dose level.
Day 1: Each drug was added into each dish so that the drug content in each dish was adjusted, respectively, to 100, 30, 10, 3 and 1 μg/ml.
Day 4: The cells were stripped from the surface of each dish, and the number of cells was counted using a Kohlter's counter.
A substance or drug having an ED50 value of not more than 4 μg/ml for a synthesized product was appraised as an effective substance. Meanwhile, in evaluating the effect of inhibiting growth of KB-cells, the number of surviving cells was counted by a Kohlter's counter, and the counted number was compared to that of the control (without the addition of the Compound (1)) to find the concentration of the drug for inhibiting the growth by 50%, the thus found concentration being estimated as the ED50 value.

[1] = acridine derivatives, literature; cited from earlier work

Structure (SMILES) | Life Prolonging Rate (T/C) (P-388; Dosage 12.5 mg/kg) [%] | Life Prolonging Rate (T/C) (P-388; Dosage 25 mg/kg) [%] | Life Prolonging Rate (T/C) (P-388; Dosage 50 mg/kg) [%] | IC50 (KB cells) [µg/mL] | Life Prolonging Rate (T/C) (P-388; Dosage 100 mg/kg) [%] | Life Prolonging Rate (T/C) (P-388; Dosage 200 mg/kg) [%] | Life Prolonging Rate (T/C) (P-388; Dosage 400 mg/kg, T/C 0% means not less than three mice dead due to toxicity within 5 days) [%] | Anticancer effect [1]
COc1cc(NS(C)(=O)=O)ccc1Nc1c2ccccc2nc2c1oc1ccccc12 [Compound 4, N-(4-((benzofuro(3,2-b)quinoline-11yl)amino)-3-methoxyphenyl)methane sulfoneamide] | 180 | 195 | 200 | 0.3 (≈ 0.692 µM) |  |  |  | 
COc1cc(NS(C)(=O)=O)ccc1Nc1c2ccccc2nc2c1sc1ccccc12 [Compound 5, N-(4-((benzothieno(3,2-b)quinoline-11-yl)amino)-3-methoxyphenyl)methanesulfoneamide] | 138 | 170 | 170 | 0.3 (≈ 0.667 µM) |  |  |  | 
COc1cc(NS(C)(=O)=O)ccc1Nc1c2c(nc3ccccc13)-c1ccccc1C2 [Compound 6] | 166 |  | 217 | < 0.3 | 240 | 60 | 0 | 
COc1cc(NS(C)(=O)=O)ccc1Nc1c2ccccc2nc2ccccc12 [amsacrine, N-(4-(9-acridinylamino)-3-methoxyphenyl)-methanesulfoneamide] |  |  |  |  |  |  |  | most effective derivative
COc1cc(NS(C)(=O)=O)ccc1Nc1c2c(nc3ccccc13)CCCC2 [tetrahydroamsacrine] |  |  |  |  |  |  |  | reduced anticancer effect
